Measured values: patent US20040248871A1, “Use of lysyl oxidase inhibitors for cell culture and tissue engineering” (priority 2001, published 2004)

System: normal human chondrocytes
Test: Normal human chondrocytes in 3D culture in collagen-GAG-chitosan sponge (immunofluorescence, histology)
Type: cell-based
Settings: 3D culture in sponge, three months
Text: The chondrocytes obtained after ligamentoplasty have been used for the three-dimensional culture in collagen-GAG-chitosan sponge (Collombel et al. 1987)* in the presence or absence of BAPN (FIGS. 7 and 8). * Collombel C., Damour O., Gagneu C., Poinsignon F., Echinard C., Marichy J.: Peau artificielle et son procédé de fabrication. French Patent No. 87-08752 (15th Jun. 1987), European Patent No. 88-420194.8 (14th Jun. 1988).
Nevertheless, human chondrocytes dedifferentiated in terms of the period of culture necessary for their multiplication in culture on plastic, can advantageously be placed in three-dimensional (3D) culture in the presence of βAPN. The placing in 3D culture not being sufficient, in itself, to ensure a return to the cartilage phenotype lost during the 2-dimensional culture in the presence of serum, as was described for 3D cultures in agarose.
3 D culture in sponges of collagen-GAG-chitosan in the presence of serum and βAPN of normal human chondrocytes. The chondrocytes were previously multiplied, and dedifferentiated, in 2D culture on plastic.

Compound: N#CCCN [βAPN, β-aminopropionitrile]
- intensity of marking of the collagen I: strong decrease
- intensity of marking of the collagen II and of the aggrecan (cartilage markers): clear increase
